Measurements from patent publication US9040713B2, “Methods of managing blood sugar levels and compositions related thereto” (EMORY UNIVERSITY, priority 2010, dated 2015).

Assays:
IGF-1R = IGF-1R phosphorylation in cells (immunoblotting); assay type: cell-based
Experimental: (§1) (A) DDN and CSN activate IR and its downstream signaling in CHO-IR cells. […] The cell lysates were analyzed by immunoblotting with anti-phospho-IR antibodies, or immunoprecipitated by PY20 and analyzed using anti-IR and anti-IRS-1, respectively. (B) DDN and CSN induce IR phosphorylation in a dose-dependent manner. CHO-IR cells were treated with the small compounds at different concentrations for 15 min, and the IR phosphorylation was monitored by immunoprecipitation and immunoblotting. (C) DDN, CSN induce IR phosphorylation in a time-dependent manner. […] (D) DDN and CSN induce IR phosphorylation and its downstream signaling in a dose-dependent manner. […] (E) DDN and CSN cannot induce IGF-1R or EGFR phosphorylation. CHO-IGF-1R or HEK293 cells were treated with EGF (100 nM), IGF-1 (100 nM), DDN (10 μM) or CSN (10 μM) for 15 min. The cell lysates were analyzed by immunoblotting with anti-pIGF-1R and anti-pEGFR.
(§2) (A) Chemical structure of 4524-E7. (B) Effect of 4524-E7 and other 1,4-naphthoquinone derivatives on IR phosphorylation in CHO-IR cells. CHO-IR cells were cultured in 96-well plates and treated with 5 μM compounds for 15 min at 37 C. Cells were lysed, and IR phosphorylations were tested by ELISA. The IR phosphorylation activities of the tested compounds were expressed as a percentage of the vehicle. (C) 4524-E7 and 1,4-naphthoquinone derivates activate IR and its downstream signaling in CHO-IR cells. […] The cell lysates were analyzed by immunoblotting with various indicated antibodies. The phosphorylated IR was immunoprecipitated using PY20 and analyzed by immunoblotting with anti-IR13 antibody. […] The phosphorylation of each receptor was determined by Western blot using specific antibodies as indicated. (E) 4524-E7 activates IR through its ICD. Upper panel: Diagram of chimaeric receptors. Lower panel: His-tagged wild-type IR, IGFR-IR, IR-IGFR, and IR-EGFR constructs were transfected into CHO cells followed vehicle or 5 μM 4524-E7 treatment for 30 min. Then the cells were lysated and the transfected receptor fused to His tag were pulled down with Ni+ beads, followed by western blot against anti-p-Tyr and anti-His. The cell lysates were tested with anti-p-Akt and anti-Akt.
(§3) A cell-based ELISA assay was developed with an IR stably transfected Chinese Hamster Ovary (CHO-IR) cell line. The cells were seeded in a 96-well plate and treated with 10 μM (15 min) compounds. The cell lysates were subjected to the sandwich ELISA using immobilized anti-phosphotyrosine antibody and anti-IR antibody. […] Among the positive hits, 1,4-naphthoquinone compounds were identified that can selectively activate IR but not IGF-1R (FIG. 1A). […] Total IR tyrosine phosphorylation was further confirmed by immunoprecipitation using anti-phosphotyrosine (PY20) antibody (FIG. 2A, 3rd panel). […]

EGFR = EGFR phosphorylation in cells (immunoblotting); assay type: cell-based
Experimental: as §1, §2, §3

GST-IRTK = biological target: T1, GST-IRTK (Homo sapiens, UniProt P06213); experiment: IR in vitro kinase assay (histone H2B phosphorylation); assay type: biochemical; details: different concentrations of compound
T1 construct: GST-tagged IRTK (GST-IRTK, a.a. 1011-1382); purchased Invitrogen
Experimental: Parental CHO cells were used as a negative control (bottom panel). The fluorescence-labeled cells were analyzed on flow cytometry. (B) DDN binds to IRTK. UV-visible spectra were scanned from 200 to 800 nm for IRTK fragment in the presence of DDN or its analogue. When DDN binds to IRTK, it elicits the absorption alteration at 560 and 602 nm. (C) DDN protects IRTK from proteolysis. GST-IRTK was subjected to limited trypsin digestion in the presence of DDN (50 μM), ATP-γ-S (5 μM) or both. The reaction mixture was resolved by SDS-PAGE, followed by silver staining (D) DDN increases IRTK activity in vitro.
Parental CHO cells were used as a negative control (Bottom panel). The fluorescence-labeled cells were analyzed on flow cytometry. (B) 4524-E7 protects IRTK from proteolysis. GST-IRTK was subjected to limited trypsin or chymotrypsin digestion in the presence of 4524-E7 (50 μM), ATPyS (5 μM) or both at 37° C. for 5 min. The reaction mixture was resolved by SDS-PAGE, followed by silver staining Cleaved fragments were asterisked. (C) 4524-E7 increases IRTK activity in vitro. Recombinant GST-IRTK, GST-IGFRTK, and GST-EGFRTK were incubated with different concentrations of 4524-E7 or 10 μM 2—NH2-NQ and the kinase activity was examined by monitoring the phosphorylation of histone H2B. (E) In vitro kinase activity of various IRTK/IGF-1R kinase hybrids. The GFP-tagged kinases were expressed in HEK293, immunoprecipitated and incubated with different concentrations of 4524-E7 as indicated. […] Expressions of the kinases were also verified (lower panel).
Recombinant GST-IRTK was incubate with 50 mM tris-HCl (pH7.4), 10 mM MgCl2, and 50 μM ATP with different concentration of compound for 15 min at 25° C. Histone H2B (0.35 μg/ml) and [γ32P]ATP (0.25 μCi/ul) were added and the samples were further incubated for 10 min. The sample was separated on a SDS-polyacrylamide gel and autoradiographed.

mice = experiment: Repeated dosing tolerability in mice; assay type: in vivo, mouse
Experimental: […] Mice were chronically treated with 4524-E7 for 2 weeks and tested if the compound can inhibit food intake.
In liver and muscle, DDN elicited demonstrable IR activation after 3-4 h (FIG. 3B, 1st panel). […] The liver was then dissected and homogenized after 5 min. […] Similarly to the observation in C57/BL6 mice, DDN induces IR signaling in the well-established mice models of non-insulin-dependent diabetes mellitus.

[1] = differentiated 3T3-L1 adipocytes
[2] = C57BL/6J mice, 5 mg/kg daily oral, 16 days

T1 sequence (P06213 1011-1382): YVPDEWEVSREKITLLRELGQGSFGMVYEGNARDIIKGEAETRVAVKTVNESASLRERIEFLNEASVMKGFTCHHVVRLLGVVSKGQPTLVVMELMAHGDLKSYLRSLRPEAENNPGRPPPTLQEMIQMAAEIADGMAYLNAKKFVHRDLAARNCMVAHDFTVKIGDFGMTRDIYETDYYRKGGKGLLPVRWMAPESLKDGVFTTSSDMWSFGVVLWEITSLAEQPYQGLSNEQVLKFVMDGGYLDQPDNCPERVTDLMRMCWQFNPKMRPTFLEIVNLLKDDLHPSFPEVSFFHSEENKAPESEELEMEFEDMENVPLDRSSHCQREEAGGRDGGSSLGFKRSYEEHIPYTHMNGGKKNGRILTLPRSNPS

Compound	IGF-1R activation (IGF-1R; IGF-1R-transfected HEK293 cells, 5 μM)	IGF-1R activation (IGF-1R; [1])	EGFR activation (EGFR; EGFR-transfected HEK293 cells, 5 μM)	EGFR activation (EGFR; [1])	IRTK kinase activity (histone H2B phosphorylation) (GST-IRTK)	blood chemistry analysis (mice; 5 mg/kg, 2 weeks)	food intake and body weight compared to vehicle control (mice; 5 mg/kg, 2 weeks)	pathological examination on all major organs (mice; two week period)	IGF-1R activation (IGF-1R; CHO-IGF-1R cells, 10 μM, 15 min)	EGFR activation (EGFR; HEK293 cells, 10 μM, 15 min)	food intake and blood biochemistry (mice; [2])	pathological examination of brain, heart, liver, kidney and muscle (mice; [2])	side effects (mice; administrated to animals for two weeks)
O=C1c2ccccc2C(=O)C2SC(Nc3ccc(Cl)cc3)=NC12 (centres unmarked) [4524-E7, 2-((4-chlorophenyl)amino)naphtho[2,3-d]thiazole-4,9(3aH,9aH)-dione]	not any other RTKs	neither IGF-1R nor EGFR was activated	not any other RTKs	neither IGF-1R nor EGFR was activated	greatly enhanced	comparable results between drug-treated mice and vehicle control	not significantly changed	no demonstrable toxicity was detected					
CC(=O)Oc1ccc(OC(C)=O)c2c1C(=O)C(Cl)=C(Cl)C2=O [DDN, 5,8-diacetyloxy-2,3-dichloro-1,4-naphthoquinone]					activated the recombinant IRTK to phosphorylate histone H2B				Neither IGF-1R nor EGFR was activated	Neither IGF-1R nor EGFR was activated	did not affect the food intake, or blood biochemistry	failed to detect any demonstrable toxicity	does not exhibit any intolerable side effects
